From patent US10836789B2, “Inhibitors of glucocorticoid receptor” (ORIC Pharmaceuticals, Inc., priority 2016, dated 2020)

Experiments:
GR = target: T1, GR (Homo sapiens, UniProt P04150); test: GR luciferase antagonist assay (CHO/GR/MMTV Luciferase cells); assay type: cell-based; conditions: 10 nM Dexamethasone final, 16-18 h
T1 construct: expressed in transfected cells; host or cells: CHO cells carrying GR and an MMTV-luciferase reporter
T1 sequence (P04150 1-777): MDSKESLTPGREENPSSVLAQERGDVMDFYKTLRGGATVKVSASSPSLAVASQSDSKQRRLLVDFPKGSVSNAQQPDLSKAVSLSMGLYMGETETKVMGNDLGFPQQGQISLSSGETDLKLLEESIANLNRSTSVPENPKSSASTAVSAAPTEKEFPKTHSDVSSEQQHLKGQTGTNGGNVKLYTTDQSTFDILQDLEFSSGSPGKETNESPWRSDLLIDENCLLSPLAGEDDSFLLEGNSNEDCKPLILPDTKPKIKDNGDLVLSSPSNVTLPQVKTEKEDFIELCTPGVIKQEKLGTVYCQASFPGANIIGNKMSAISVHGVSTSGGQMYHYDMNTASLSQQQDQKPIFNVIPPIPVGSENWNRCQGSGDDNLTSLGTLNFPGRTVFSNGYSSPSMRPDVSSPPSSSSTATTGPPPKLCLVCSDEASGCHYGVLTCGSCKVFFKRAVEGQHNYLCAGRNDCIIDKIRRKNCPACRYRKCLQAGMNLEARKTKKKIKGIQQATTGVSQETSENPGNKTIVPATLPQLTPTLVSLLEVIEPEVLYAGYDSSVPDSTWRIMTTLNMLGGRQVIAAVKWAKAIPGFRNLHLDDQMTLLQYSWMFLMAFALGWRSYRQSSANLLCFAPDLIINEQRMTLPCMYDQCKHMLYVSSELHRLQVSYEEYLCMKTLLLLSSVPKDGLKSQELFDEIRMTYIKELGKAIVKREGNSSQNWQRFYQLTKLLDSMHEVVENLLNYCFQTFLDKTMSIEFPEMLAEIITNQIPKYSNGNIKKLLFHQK
Description: Example A: […] GR Luciferase Assay Cell Line: CHO/GR/MMTV Luciferase Culture Media: DMEM (with phenol red)+10% FBS Assay Media: DMEM (without phenol red)+10% CSS A 1×10 cm plate of cells was split into 2×15 cm plates in Assay Media (CSS). After 4 days, the cells in the Assay Media were collected and counted. Antagonist Assay: 1.5×10^4 cells per well were plated in a 384-well white walled TC plate in 20 ul of Assay Media containing 12.5 nM Dexamethasone (final concentration=10 nM). The plates were covered with film to avoid evaporation and placed in a TC incubator. Media/drug dilutions were prepared in Assay Media in 96-well sterile plates. 100 ul of Assay Media was distributed in aliquots into 96-well plates with an 8-Channel pipette (20-200 ul). 0.5 ul of 1000× concentration of compounds were added to the plates with 8-Channel pipette (0.5-10 ul). The plates were shaken for 15 seconds to mix. The film was removed from the 384-well plates with assay cells. 5 ul of media/drug dilutions were added to appropriate wells. The plates were covered with film to avoid evaporation and placed in a TC incubator overnight. After 16-18 h in the incubator, the plates were removed and sat at room temperature for 10 minutes to equilibrate. The Reagent Dispenser was setup to distribute 25 ul aliquots of OneGlo Luciferase Reagent (at room temperature) to each well of the 384-well plate using standard cassette. After OneGlo was added to the plates, the plates were shaken briefly, then incubated in the dark at room temperature for about 3 minutes. The plates were read using a Tecan or Promega luminometer. The ability of the compounds disclosed herein to inhibit GR activity was quantified and the respective IC50 value was determined. Table 3 provides the cellular IC50 values of various substituted steroidal compounds disclosed herein.

AR = AR agonism assay in LNAR reporter cell line; assay type: cell-based; conditions: LNAR cells (overexpressed AR, 4XARE-Luc), 10% CSS, 18-24 hrs; Mifepristone maximum response set to 1
Description: Example B: In Vitro AR Agonism Assay
The AR agonism assay was done in the LNAR reporter cell line which has overexpressed AR and 4XARE-Luc genes. This cell line is sensitive to even minor partial AR agonism activity in hormone-deprived media (CSS). The assays were done in RPMI (without phenol red)+10% CSS using 6000 LNAR cells/well in 384-well plates and compounds were incubated with cells in […] incubator for 18-24 hrs. OneGlo reagent (25 uL/well) was added and plates were read with luminometer within 3 minutes.
To gauge the AR partial agonism activity, Mifepristone is included as a standard in the assay. AR agonism assay results are quantified by determining the ratio of the maximum response of individual compounds to the maximum response of Mifepristone (arbitrarily set to 1). Values of Table 4 are reported as Relative Maximum Response to Mifepristone. This general trend of AR agonism was shown for the class of compounds described herein.

| SMILES | IC50 (GR) [nM] | Relative Maximum Response to Mifepristone (AR) |
| --- | --- | --- |
| CC(C)(C)C#C[C@]1(O)CC[C@H]2[C@@H]3CCC4=CC(=O)CC[C@@H]4[C@H]3[C@@H](c3ccc(N4CCOCC4)cc3)C[C@@]21C [Compound 7, (8R,9S,10R,11S,13S,14S,17S)-17-(3,3-Dimethylbut-1-yn-1-yl)-17-hydroxy-13-methyl-11-(4-morpholinophenyl)-1,2,6,7,8,9,10,11,12,13,14,15,16,17-tetradecahydro-3H-cyclopenta[a]phenanthren-3-one] | ≤ 100 | A (A: ≤ 0.4) |
| CC(C)(C)C#C[C@]1(O)CC[C@H]2[C@@H]3CCC4=CC(=O)CC[C@@H]4[C@H]3[C@@H](c3ccc(N4CCCC4)cc3)C[C@@]21C [Compound 1, (8R,9S,10R,11S,13S,14S,17S)-17-(3,3-Dimethylbut-1-yn-1-yl)-17-hydroxy-13-methyl-11-(4-(pyrrolidin-1-yl)phenyl)-1,2,6,7,8,9,10,11,12,13,14,15,16,17-tetradecahydro-3H-cyclopenta[a]phenanthren-3-one] | ≤ 100 | A (A: ≤ 0.4) |
| CC(C)(C)C#C[C@]1(O)CC[C@H]2[C@@H]3CCC4=CC(=O)CC[C@@H]4[C@H]3[C@@H](c3ccc(N4CCS(=O)(=O)CC4)cc3)C[C@@]21C [Compound 22] | ≤ 100 | A (A: ≤ 0.4) |
| CC#C[C@]1(O)CC[C@H]2[C@@H]3CCC4=CC(=O)CC[C@]4(C)[C@H]3[C@@H](c3ccc(N(C)C)c(F)c3)C[C@@]21C [Compound 32] | > 100 | A (A: ≤ 0.4) |
| COCC#C[C@]1(O)CC[C@H]2[C@@H]3CCC4=CC(=O)CC[C@]4(C)[C@H]3[C@@H](c3ccc(N(C)C)cc3)C[C@@]21C [Compound 17, (8S,9R,10R,11S,13S,14S,17S)-11-(4-(Dimethylamino)phenyl)-17-hydroxy-17-(3-methoxyprop-1-yn-1-yl)-10,13-dimethyl-1,2,6,7,8,9,10,11,12,13,14,15,16,17-tetradecahydro-3H-cyclopenta[a]phenanthren-3-one] | > 100 | A (A: ≤ 0.4) |
| CN(c1ccc([C@H]2C[C@@]3(C)[C@@H](CC[C@@]3(O)C#CC(C)(C)C)[C@@H]3CCC4=CC(=O)CC[C@@H]4[C@H]32)cc1)C(C)(C)C [Compound 11, (8R,9S,10R,11S,13S,14S,17S)-11-(4-(tert-Butyl(methyl)amino)phenyl)-17-(3,3-dimethylbut-1-yn-1-yl)-17-hydroxy-13-methyl-1,2,6,7,8,9,10,11,12,13,14,15,16,17-tetradecahydro-3H-cyclopenta[a]phenanthren-3-one] | ≤ 100 | A (A: ≤ 0.4) |
| CC(C)N(C)c1ccc([C@H]2C[C@@]3(C)[C@@H](CC[C@@]3(O)C#CC(C)(C)C)[C@@H]3CCC4=CC(=O)CC[C@@H]4[C@H]32)cc1 [Compound 2, (8R,9S,10R,11S,13S,14S,17S)-17-(3,3-Dimethylbut-1-yn-1-yl)-17-hydroxy-11-(4-(isopropyl(methyl)amino)phenyl)-13-methyl-1,2,6,7,8,9,10,11,12,13,14,15,16,17-tetradecahydro-3H-cyclopenta[a]phenanthren-3-one] | ≤ 100 | A (A: ≤ 0.4) |
| CC(C)Nc1ccc([C@H]2C[C@@]3(C)[C@@H](CC[C@@]3(O)C#CC(C)(C)C)[C@@H]3CCC4=CC(=O)CC[C@@H]4[C@H]32)cc1F [Compound 14, (8R,9S,10R,11S,13S,14S,17S)-17-(3,3-dimethylbut-1-yn-1-yl)-11-(3-fluoro-4-(isopropylamino)phenyl)-17-hydroxy-13-methyl-1,2,6,7,8,9,10,11,12,13,14,15,16,17-tetradecahydro-3H-cyclopenta[a]phenanthren-3-one] | > 100 | A (A: ≤ 0.4) |
| CN1CCN(c2ccc([C@H]3C[C@@]4(C)[C@@H](CC[C@@]4(O)C#CC(C)(C)C)[C@@H]4CCC5=CC(=O)CC[C@@H]5[C@H]43)cc2)CC1 [Compound 20] | ≤ 100 | A (A: ≤ 0.4) |
| CC(C)Nc1ccc([C@H]2C[C@@]3(C)[C@@H](CC[C@@]3(O)C#CC(C)(C)C)[C@@H]3CCC4=CC(=O)CC[C@@H]4[C@H]32)cc1 [Compound 10, (8R,9S,10R,11S,13S,14S,17S)-17-(3,3-Dimethylbut-1-yn-1-yl)-17-hydroxy-11-(4-(isopropylamino)phenyl)-13-methyl-1,2,6,7,8,9,10,11,12,13,14,15,16,17-tetradecahydro-3H-cyclopenta[a]phenanthren-3-one] | ≤ 100 | A (A: ≤ 0.4) |
| COC(C)(C)C#C[C@]1(O)CC[C@H]2[C@@H]3CCC4=CC(=O)CC[C@@H]4[C@H]3[C@@H](c3ccc(N(C)C(C)C)cc3)C[C@@]21C [Compound 4, (8R,9S,10R,11S,13S,14S,17S)-17-Hydroxy-11-(4-(isopropyl(methyl)amino)phenyl)-17-(3-methoxy-3-methylbut-1-yn-1-yl)-13-methyl-1,2,6,7,8,9,10,11,12,13,14,15,16,17-tetradecahydro-3H-cyclopenta[a]phenanthren-3-one] | ≤ 100 | A (A: ≤ 0.4) |
| CC(C)(C)C#C[C@]1(O)CC[C@H]2[C@@H]3CCC4=CC(=O)CC[C@@H]4[C@H]3[C@@H](c3ccc(N4CCN(C(=O)OC(C)(C)C)CC4)cc3)C[C@@]21C [Compound 25] | ≤ 100 | A (A: ≤ 0.4) |
| CCC(C)(C)C#C[C@]1(O)CC[C@H]2[C@@H]3CCC4=CC(=O)CC[C@@H]4[C@H]3[C@@H](c3ccc(N(C)C)cc3)C[C@@]21C [Compound 6, (8R,9S,10R,11S,13S,14S,17S)-11-(4-(Dimethylamino)phenyl)-17-(3,3-dimethylpent-1-yn-1-yl)-17-hydroxy-13-methyl-1,2,6,7,8,9,10,11,12,13,14,15,16,17-tetradecahydro-3H-cyclopenta[a]phenanthren-3-one] | ≤ 100 | A (A: ≤ 0.4) |
